Like-named read-outs stand apart in the source and are kept apart here. Residues, ends and D or L forms follow the SMILES beside them. *: point of attachment. Cbz = O=C(OCc1ccccc1)*; CH2Cl = ClC*
Columns and labels:
[1] = test system: chymotrypsin; conditions: inhibitor concentration of 600 µg/mL; cited from earlier work
[2] = test system: subtilisin BPNʹ; conditions: series of peptide chloromethyl ketones; cited from earlier work
[3] = test system: poliovirus type 2; type: cell-based, human poliomyelitisvirus type 2
[4] = test system: rhinovirus type 1A; type: cell-based, human rhinovirus type 1A
[5] = test system: rhinovirus type 1A; assay: Plaque inhibition assay; type: cell-based, Human rhinovirus type 1A
[6] = test system: poliovirus type 2; type: cell-based
[7] = test system: human HeLa-O cells

Q: With Ac-Leu-Leu-PheCH₃ as the molecule, how does the inhibition of chymotrypsin [1] read?
A: The inhibition of chymotrypsin was “no inhibition was observed”.

Q: For “acetyl-L-phenylalanyl-L-glycyl-L-alanyl-L-leucyl chloromethyl ketone (Ac-FGAL-CH2Cl; SMILES CC(=O)N[C@@H](Cc1ccccc1)C(=O)NCC(=O)N[C@@H](C)C(=O)N[C@@H](CC(C)C)C(=O)CCl) [Ac-Phe-Gly-Ala-LeuCH₂Cl]”, which “inhibition of subtilisin BPNʹ (rate ranking among the compounds tested)” value [2] is on record?
A: Its value is “fastest inhibitor”.

Q: Which “activity in the viral cleavage assay” value [3] does the source give for CC(=O)[C@H](CC(C)C)NC(=O)[C@H](C)NC(=O)CNC(=O)[C@H](Cc1ccccc1)NC(=O)OC(C)(C)C [Boc-Phe-Gly-Ala-LeuCH₃] here?
A: Its value is “failed to show activity”.

Q: And the “activity in the viral cleavage assay” value [4]?
A: Its value is “failed to show activity”.

Q: With CC(=O)[C@H](CC(C)C)NC(=O)[C@H](C)NC(=O)CNC(=O)[C@H](Cc1ccccc1)NC(=O)OCc1ccccc1 [Z-Phe-Gly-Ala-LeuCH₃] as the molecule, how does the “activity in the viral cleavage assay” value ([3]; 50 µg/mL) read?
A: Its value is “active”.

Q: And the plaque reduction ([5]; 50 µg/mL in agar overlays, compared to control plates)?
A: The plaque reduction was > 90%.

Q: What about the plaque reduction [6] of the same molecule?
A: Its plaque reduction is > 90%.

Q: And the “No cytotoxicity observed at concentrations up to” value [7]?
A: Its value is > 1 mg/mL.

Q: With CC(C)C[C@H](NC(=O)[C@H](CC(C)C)NC(=O)CNC(=O)[C@H](Cc1ccccc1)NC(=O)OCc1ccccc1)C(=O)CCl [Z-Phe-Gly-Leu-LeuCH₂Cl] (Cbz-FGLL-CH2Cl) as the molecule, how does the “Antiviral activity, as scored by 90% plaque reduction, noted at” value ([5]; HeLa cells) read?
A: Its value is 1 µg/mL.

Q: What about the “cytotoxicity first detected at a concentration of” value [7] of the same molecule?
A: The value was “about 15 µg/mL”.

Q: Which “activity in the viral cleavage assay” value ([3]; 50 µg/mL) does the source give for COC(=O)CCC(=O)N[C@@H](Cc1ccccc1)C(=O)NCC(=O)N[C@@H](CC(C)C)C(=O)N[C@@H](CC(C)C)C(C)=O [MeOSuc-Phe-Gly-Leu-LeuCH₃] here?
A: Its value is “active”.

— patent EP0263903A1, “Method for preparing specific inhibitors of virus-specified proteases” (priority 1986, dated 1988)
